Experimental data published in ChEMBL document CHEMBL1201862, “PubChem BioAssay data set” (2004).
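Cells were grown in 96-well plates and exposed to each compound for 48 hours at five concentrations; endpoints were interpolated linearly between bracketing concentrations, or set to the highest concentration if not reached. GI50: concentration for 50% inhibition of growth.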 Activity calls are given as the source filed them. Cut-off read from the data, not from the text of the source: active = GI50 up to about 1.1 µM and inactive = higher. Where a SMILES comes first, the peptide text is derived from it. The star is where a group is joined. OSu = O=C1CCC(=O)N1O*; OBn = c1ccc(CO*)cc1; Bn = c1ccc(C*)cc1

Experiments:
Assay in all cases: NCI tumour cell line growth inhibition, 48 h
SK-OV-3 = test system: SK-OV-3
A549 = test system: A549
HCT-116 = test system: HCT-116
Malme-3M = test system: Malme-3M
MDA-N = test system: MDA-N
HOP-92 = test system: HOP-92
IGROV-1 = test system: IGROV-1
NCI-H522 = test system: NCI-H522
SNB-19 = test system: SNB-19
Hs-578T = test system: Hs-578T
SR = test system: SR
CAKI-1 = test system: CAKI-1
M14 = test system: M14
SF-539 = test system: SF-539
NCI-H23 = test system: NCI-H23
SK-MEL-28 = test system: SK-MEL-28
HCC 2998 = test system: HCC 2998
HL-60 = test system: HL-60
NCI-H226 = test system: NCI-H226

Measured: GI50

OC(Cc1ccc2ccccc2n1)(C(F)(F)F)C(F)(F)F
inactive: SK-OV-3 > 10 µM | A549 > 10 µM | HCT-116 > 10 µM | Malme-3M > 10 µM | MDA-N > 10 µM | HOP-92 > 10 µM | IGROV-1 > 10 µM | NCI-H522 > 10 µM | SNB-19 > 10 µM | Hs-578T > 10 µM | SR > 10 µM | CAKI-1 > 10 µM | M14 > 10 µM | SF-539 > 10 µM | NCI-H23 > 10 µM | SK-MEL-28 > 10 µM | HCC 2998 > 10 µM

COc1cc2c(cc1O)C(Cc1ccc(OCc3ccccc3)c(OCc3ccccc3)c1)N(C(=O)NCCc1ccccc1)CC2 (stereo not drawn)
inactive: SK-OV-3 > 100 µM | A549 20.8 µM | HCT-116 45.1 µM | Malme-3M > 100 µM | MDA-N > 100 µM | HOP-92 > 100 µM | IGROV-1 > 100 µM | NCI-H522 2.88 µM | SNB-19 > 100 µM | Hs-578T > 100 µM | HL-60 37.3 µM | SR 37.3 µM | CAKI-1 > 100 µM | M14 > 100 µM | SF-539 > 100 µM | NCI-H23 > 100 µM | NCI-H226 > 100 µM | HCC 2998 86.9 µM

C=CCC1NCCC2=C1C(S(=O)(=O)c1ccc(C)cc1)c1ccccc12 (stereo not drawn)
inactive: SK-OV-3 16.6 µM | A549 15.1 µM | HCT-116 11.1 µM | Malme-3M 11.2 µM | MDA-N 6.9 µM | HOP-92 9.95 µM | IGROV-1 8.11 µM | NCI-H522 10.1 µM | SNB-19 16.5 µM | Hs-578T 13.7 µM | SR 3.64 µM | CAKI-1 6.92 µM | M14 11.8 µM | NCI-H23 18 µM | NCI-H226 16.8 µM | SK-MEL-28 12.4 µM | HCC 2998 1.85 µM

COc1ccccc1N1C(=O)CC(=O)N(C(=O)CCCCCCCCC(=O)N2C(=O)CC(=O)N(c3ccccc3OC)C2=S)C1=S
inactive: SK-OV-3 > 100 µM | A549 53.7 µM | HCT-116 56.9 µM | Malme-3M > 100 µM | MDA-N 67.3 µM | HOP-92 59.2 µM | NCI-H522 47.3 µM | SNB-19 74.1 µM | Hs-578T 69 µM | SR 28.4 µM | CAKI-1 > 100 µM | M14 69.7 µM | SF-539 > 100 µM | NCI-H23 53.6 µM | NCI-H226 > 100 µM | SK-MEL-28 > 100 µM | HCC 2998 > 100 µM

N#CC(CC(=O)O)=C(c1ccccc1)c1ccccc1
inactive: SK-OV-3 > 100 µM | A549 > 100 µM | HCT-116 > 100 µM | Malme-3M > 100 µM | MDA-N > 100 µM | HOP-92 > 100 µM | IGROV-1 > 100 µM | NCI-H522 > 100 µM | SNB-19 > 100 µM | Hs-578T 70.1 µM | SR > 100 µM | CAKI-1 > 100 µM | M14 > 100 µM | SF-539 > 100 µM | NCI-H23 > 100 µM | NCI-H226 > 100 µM | SK-MEL-28 > 100 µM | HCC 2998 > 100 µM

C(=NCCN1CCOCC1)=NC1CCCCC1
inactive: SK-OV-3 > 100 µM | A549 > 100 µM | HCT-116 > 100 µM | Malme-3M > 100 µM | MDA-N > 100 µM | HOP-92 > 100 µM | IGROV-1 > 100 µM | NCI-H522 > 100 µM | SNB-19 > 100 µM | Hs-578T > 100 µM | SR 12.4 µM | CAKI-1 > 100 µM | M14 > 100 µM | SF-539 > 100 µM | NCI-H23 > 100 µM | NCI-H226 > 100 µM | SK-MEL-28 > 100 µM

[N-]=[N+]=Nc1ccccc1-c1ccccc1[N+](=O)[O-]
inactive: SK-OV-3 > 100 µM | A549 > 100 µM | HCT-116 43 µM | Malme-3M 26.4 µM | MDA-N 30.9 µM | HOP-92 72.1 µM | IGROV-1 > 100 µM | NCI-H522 14.9 µM | SNB-19 > 100 µM | Hs-578T 30.5 µM | SR 28.1 µM | CAKI-1 > 100 µM | M14 50.9 µM | NCI-H23 35.1 µM | SK-MEL-28 > 100 µM

CC(C)CC(NC(=O)C(N)CCC(=O)OCc1ccccc1)C(=O)NC(COCc1ccccc1)C(=O)NC(Cc1ccccc1)C(=O)ON1C(=O)CCC1=O (stereo not drawn) (H-E(OBn)LS(Bn)F-OSu; configuration not given here)
inactive: SK-OV-3 25.4 µM | A549 33.6 µM | HCT-116 16.4 µM | Malme-3M 29.2 µM | MDA-N 21.4 µM | HOP-92 15 µM | IGROV-1 23.4 µM | NCI-H522 18.5 µM | SNB-19 30.5 µM | Hs-578T 26.4 µM | SR 28.6 µM | CAKI-1 28.8 µM | M14 33.4 µM | NCI-H23 26.4 µM | SK-MEL-28 22.1 µM

Nc1n[n+]([O-])c2ccc(Cl)cc2[n+]1[O-]
inactive: SK-OV-3 16.7 µM | A549 20.4 µM | HCT-116 18.5 µM | Malme-3M 18.3 µM | MDA-N 23.7 µM | IGROV-1 11.6 µM | NCI-H522 15.3 µM | SNB-19 34.5 µM | Hs-578T 13.9 µM | HL-60 7.23 µM | SR 32.5 µM | CAKI-1 21.9 µM | M14 17.1 µM | SF-539 23 µM | NCI-H23 20.1 µM | NCI-H226 23.1 µM | SK-MEL-28 23.8 µM | HCC 2998 16.4 µM

CCn1c(SCC(=O)N/N=C2\SCC(=O)N2c2ccc(C)cc2)nc2ccccc2c1=O
inactive: SK-OV-3 19.7 µM | A549 21.2 µM | HCT-116 20 µM | Malme-3M 21.9 µM | MDA-N 23.6 µM | IGROV-1 21.6 µM | NCI-H522 22.4 µM | SNB-19 20.8 µM | Hs-578T 16.4 µM | HL-60 92.3 µM | SR 17.4 µM | CAKI-1 18.7 µM | M14 36.1 µM | SF-539 17.6 µM | NCI-H23 19.1 µM | NCI-H226 23.8 µM | SK-MEL-28 20.6 µM | HCC 2998 36.8 µM

COc1c(O)c(OC)c2oc(-c3ccc(O)cc3)c(OC)c(=O)c2c1O
inactive: SK-OV-3 17 µM | A549 44.2 µM | HCT-116 46.3 µM | Malme-3M 13.4 µM | MDA-N 79.4 µM | IGROV-1 17.8 µM | NCI-H522 26.1 µM | SNB-19 > 100 µM | Hs-578T 18.4 µM | HL-60 > 100 µM | SR 60.1 µM | CAKI-1 27.8 µM | M14 47.2 µM | SF-539 55.3 µM | NCI-H23 30.8 µM | NCI-H226 50.9 µM | SK-MEL-28 81.8 µM | HCC 2998 32 µM
